Several values for one entry are separate records, joined by “and”; a condition that tells them apart may be missing. Identical values can stand only once.
How the values were obtained:
[1] = tested on: mixture of 12 microorganisms; experiment: Calculation of synergism of 573 and 651 combinations (Kull et al. method); type: cell-based; conditions: for SI (synergy index, Qa'/QA + Qb'/.75 QB): <1 synergism, 1 additivity, >1 antagonism
Procedure: Each single culture was inoculated to TSB agar slants and incubated for 2 days at 30° C. for C. albicans and all bacteria except E. coli and S. aureus, which were at 37° C., and incubated for 10-14 days at 25° C. for fungal cultures. The bacteria and fungi were then washed off the slants with phosphate buffer (0.125 M, pH 7.2) and inoculated into each test tube containing a given concentration and ratio of 573 and 886 to make final cell concentration of about 2×10^7 bacteria and 2×10^6 fungi per ml. […] Seven days after inoculation, 5 microliter of sample from each test tube (containing about 10^5 bacteria and 10^4 fungi from original inoculation) was removed and assessed for viable organisms by 1:50 dilution into TSB medium and checked for regrowth. No viable organisms were detected from the test tubes where MICs were observed. […] Each test tube was reinoculated 2 more times (a total of 3 inoculations) to determine the capacity and the longlasting activity of the combinations.
Synergism is determined by the industrially accepted method described by Kull, F. C.; Eisman, P. C.; Sylvestrowicz, H. D. and Mayer, R. L. in Applied Microbiology 9:538-541 (1961) using the ratio determined by [formula] wherein QA=concentration of compound A in parts per million (ppm), acting alone, which produced an end point
Qa=concentration of compound A in ppm, in the mixture, which produced an end point
QB=concentration of compound B in ppm, acting alone, which produced an end point
Qb=concentration of compound B in ppm, in the mixture, which produced an end point
When the sum of Qa/QA plus Qb/QB is greater than one, antagonism is indicated. When the sum is equal to one, additivity is indicated, and when the sum is less than one, synergism is indicated.
As shown, a wide range of concentration and ratios was tested. More importantly all the critical end-point activities for the combinations were covered. […] Thus, the end-point activities are based on the minimum concentrations of a given ratio of combination product that inhibit all three inoculations.
The end-point activity (MIC in ppm) is taken from Table 1.
QA is the end-point activity of 573 alone
QB is the end-point activity of 886 alone
Qa is the end-point activity 573 in the mixture of 573 and 886
Qb is the end-point activity of 886 in the mixture of 573 and 886.
Since 886 is 25% 573 and 75% 651, the total 573 (Qa') in the combinations is Qa+25% Qb, and the total 651 (Qb') in the combinations is 75% Qb. Total concentration of 573 and 651 in the mixture is Qa' and Qb'. The % 573 in the mixture is Qa'/(Qa'+Qb'), and %651 in the mixture is Qb'/(Qa'+Qb'.)
Therefore, the calculation of synergy index (SI) is Qa'/QA+Qb'/.75 QB. The most preferred synergy for 573 and 651 combinations is seen at 2.3%-4.5% of 651. Taking the synergy index of less than 0.5 as most significant, then a range of 2.3% to 8.5% of 651 in the 573/651 combinations is preferred.

skin of guinea pigs = experiment: Sensitization study, closed-patch test of Buehler; type: in vivo, guinea pig
Procedure: The study was conducted to determine the sensitization potential of the synergistic combination of 3.5% 651 and 96.5% 573. The results were compared to the sensitization potential of 886 (containing 75% 651 and 25% 573) and pure 573.
The closed-patch test of Buehler Current Concepts in Cutaneous Toxicology, (New York: Academic Press 1970), pp. 25-40, is used to investigate the sensitization potential of the materials in the guinea pig. The combination (1.5% total active ingredient) at aqueous concentrations of 1000, 5000, 10000 and 15000 ppm a.i., the 886 (13.9% total active ingredient) at aqueous concentrations of 250, 500 and 750 ppm a.i. and the 573 (solid containing 99.5% total active ingredient) at aqueous concentrations of 5000, 15000 and 30000 ppm a.i. were applied topically to the skin of guinea pigs by means of occluded patches (0.4 ml per patch). All guinea pigs (10 per group at each concentration) received a total of ten 6-hr induction exposures over a 22 day period. In addition, a group of guinea pigs were treated with dry patches only and served as the naive control group. Two weeks after the last induction treatment guinea pigs induced with the combination were challenged with 3 concentrations of the combination in distilled water (1000, 5000 and 15000 ppm a.i.), those induced with 886 were challenged with 3 concentrations of 886 in distilled water (100, 250 and 750 ppm a.i.) and those induced with 573 alone were challenged with 3 concentrations of 573 in distilled water (1000, 5000 and 15000 ppm a.i.). Twenty-four (24) and 48 hr after the challenge doses, the application sites were examined for erythema reactions and graded from 0 to 3 in accordance with a pre-established scoring system. Reactions graded 1 or greater were judged to be skin sensitization reactions.
^a Guinea pigs received ten (6 hr.) induction exposures of the ten
materials (0.4 ml per exposure) over a 22 day period.
^b All guinea pigs received 0.4 ml of challenge doses as specified tw
weeks after the last induction dose.
^c Guinea pigs received sham treatment only.

For Cn1sccc1=O [compound 573, 2-methyl-4-isothiazolin-3-one], the “Qa'/QA” value ([1]; Expt. 1) was 1.00, the “Qb'/QB* (QB* = QB × 75%)” value ([1]; Expt. 1) was 0.00 and the “Total 573 Qa' (Qa + 25% Qb) at end-point” value ([1]; Expt. 1) was 500.0 ppm. For the same compound, the “Total ppm Qa' + Qb' at end-point” value ([1]; Expt. 1) was 500.0 ppm, the “SI (synergy index, Qa'/QA + Qb'/.75 QB)” value ([1]; Expt. 1) was 1.00 and the “Qa'/QA” value ([1]; Expt. 2) was 1.00. The “Qb'/QB* (QB* = QB × 75%)” value ([1]; Expt. 2) was 0.00, the “Total 573 Qa' (Qa + 25% Qb) at end-point” value ([1]; Expt. 2) was 125.0 ppm and the “Total ppm Qa' + Qb' at end-point” value ([1]; Expt. 2) was 125.0 ppm. For the same compound, the “SI (synergy index, Qa'/QA + Qb'/.75 QB)” value ([1]; Expt. 2) was 1.00, the “Overall incidence of responses” value (skin of guinea pigs; 5000 and 15000 ppm induction, 1000, 5000 and 15000 ppm challenge) was 7 out of a possible 60 responses and the Erythema (skin of guinea pigs; induction 5000 and 15000 ppm a.i., challenge 1000 ppm a.i.) was “no erythema was observed”. The “Erythema responses of 1 or greater at 24 and/or 48 hours” value (“Erythema responses of 1 or greater” for short) (skin of guinea pigs; induction 5000 ppm, challenge 1000 ppm (573)) was 0/10, the “Erythema responses of 1 or greater” value (skin of guinea pigs; induction 5000 ppm, challenge 5000 ppm (573)) was 1/10 and the “Erythema responses of 1 or greater” value (skin of guinea pigs; induction 5000 ppm, challenge 15000 ppm (573)) was 2/10. The “Erythema responses of 1 or greater” value (skin of guinea pigs; induction 15000 ppm, challenge 1000 ppm (573)) was 0/10, the “Erythema responses of 1 or greater” value (skin of guinea pigs; induction 15000 ppm, challenge 5000 ppm (573)) was 1/10 and the “Erythema responses of 1 or greater” value (skin of guinea pigs; induction 15000 ppm, challenge 15000 ppm (573)) was 3/10. For the same compound, the “Erythema responses of 1 or greater” value (skin of guinea pigs; induction 30000 ppm, challenge 1000 ppm) was 1/9, the “Erythema responses of 1 or greater” value (skin of guinea pigs; induction 30000 ppm, challenge 5000 ppm) was 2/9 and the “Erythema responses of 1 or greater” value (skin of guinea pigs; induction 30000 ppm, challenge 15000 ppm) was 3/9. The “Erythema responses of 1 or greater” value (skin of guinea pigs; naive control (sham induction), challenge 15000 ppm 573) was “No erythema was observed and 0/10”.

— patent US5100905A, “Method for inhibiting growth of bacteria, fungi or algae by treatment with biocide composition” (Rohm and Haas Company, priority 1991, dated 1992)
